Laboratory results published in US7807704B2, “Bicyclic, nitrogen-containing compounds modulating CXCR4 and/or CCXCKR2” (Chemocentryx, Inc., priority 2006, dated 2010).

Assays:
CXCR4 = molecular target: T1, CXCR4 (Homo sapiens, UniProt P61073); assay: chemotaxis assay or 125I SDF-1α binding assay for CXCR4; details: first or only activity listed, read-out: CXCR4 activity (IC50 class)
T1 construct: all endogenously expressing CXCR4; endogenous in cells; host or cells: CEM-Nkr, CCRF-CEM, Jurkat, Molt-4; IL-2 stimulated human lymphocytes
Experimental: CEM-Nkr, CCRF-CEM (ATCC #CCL-119), Jurkat (ATCC #TIB-152), Molt-4 (ATCC# CRL-1582), cell lines, all endogenously expressing CXCR4, were used in compound screening and subsequent assays. These cell lines were cultured as a suspension in RPMI-1640 medium supplemented with 2 mM L-glutamine, 1.5 g/L sodium bicarbonate, 4.5 g/L glucose, 10 mM HEPES, 1 mM sodium pyruvate, and 10% FBS. Cells were grown under 5% CO2/95% air, 100% humidity at 37° C. and subcultured twice weekly at 1:6 (cells were cultured at a density range of 1×10^5 to 2×10^6 cells/mL) and harvested at 1×10^6 cells/mL. • b) Isolated Human IL-2 Stimulated Lymphocytes
Cells were centrifuged and resuspended in assay buffer (20 mM HEPES pH 7.1, 140 mM NaCl, 1 mM CaCl2, 5 mM MgCl2, and with 0.2% bovine serum albumin) to a concentration of 4×10^6 cells/mL for cell lines. Binding assays were set up as follows. […] Then 0.1 mL of ^125I labeled SDF-1α (obtained from Perkin Elmer Life Sciences, Boston, Mass.) diluted in assay buffer to a final concentration of ˜50 pM, yielding ˜30,000 cpm per well, was added, the plates sealed and incubated for approximately 3 hours at 4° C. on a shaker platform. Reactions were aspirated onto GF/B glass filters pre-soaked in 0.3% polyethyleneimine (PEI) solution, on a vacuum cell harvester (Packard Instruments; Meriden, Conn.). Scintillation fluid (40 μl; Microscint 20, Packard Instruments) was added to each well, the plates were sealed and radioactivity measured in a Topcount scintillation counter (Packard Instruments). Control wells containing either diluent only (for total counts) or excess SDF1 a (1 μg/mL, for non-specific binding) were used to calculate the percent of total inhibition for compound. The computer program Prism from GraphPad, Inc. (San Diego, Calif.) was used to calculate IC50 values. IC50 values are those concentrations required to reduce the binding of radiolabeled SDF-1α to the receptor by 50%. (For further descriptions of ligand binding and other functional assays, see Dairaghi, et al., J. Biol. Chem. 274:21569-21574 (1999), Penfold, et al., Proc. Natl. Acad. Sci. USA. 96:9839-9844 (1999), and Dairaghi, et al., J. Biol. Chem. 272:28206-28209 (1997)).
Chemotaxis assays were performed using 5 μm pore polycarbonate, polyvinylpyrrolidone-coated filters in 96-well chemotaxis chambers (Neuroprobe; Gaithersburg, Md.) using chemotaxis buffer (Hank's balanced salt solution (HBSS) and 1% FBS). CXCR4 ligand (i.e., SDF1a, R&D Systems; Minneapolis, Minn.) are use to evaluate compound mediated inhibition of CXCR4 mediated migration. Other chemokines (i.e., TECK; R&D Systems; Minneapolis, Minn.) are used as specificity controls. The lower chamber was loaded with 29 μl of chemokine (i.e., 0.1 nM SDF1a); the top chamber contained 50,000 Jurkat cells or IL-2 lymphocytes in 20 μl. The chambers were incubated 2 hours at 37° C., and the number of cells in the lower chamber quantified either by direct cell counts in five high powered fields per well or by the CyQuant assay (Molecular Probes), a fluorescent dye method that measures nucleic acid content and microscopic observation.
To evaluate small organic molecules that prevent the CXCR4 from binding ligand, an assay was employed that detected radioactive ligand (i.e, SDF-1) binding to cells expressing CXCR4 on the cell surface (for example, CEM-Nkr cells). For compounds that inhibited binding, whether competitive or not, fewer radioactive counts are observed when compared to uninhibited controls.
Equal numbers of cells were added to each well in the plate. The cells were then incubated with radiolabeled […]. Unbound ligand was removed by washing the cells, and bound ligand was determined by quantifying radioactive counts. Cells that were incubated without any organic compound gave total counts; non-specific binding was determined by incubating the cells with unlabeled ligand and labeled ligand. Percent inhibition was determined by the equation: […]

CCXCKR2 (CXCR7) = molecular target: T2, CCXCKR2 (CXCR7) (Homo sapiens, UniProt P25106); assay: displacement of 125I SDF-1 from CCXCKR2 (CXCR7) on MCF-7 and/or MDA-MB-435S cells; type: binding; details: second activity listed in the cell; read-out: CXCR7 activity (IC50 class)
T2 construct: expressed in transfected cells; host or cells: MDA-MB-435S transfected with pcDNA3.1(+)-hRDC1, and/or MCF-7 (endogenous receptor)
Experimental: The ability of the compounds to displace the labeled chemokine from the CCXCKR2 receptor sites at multiple concentrations was then determined with the screening process.
Reagents and Cells. ^125I-labeled SDF-1 was purchased from Perkin-Elmer Life Sciences, Inc. (Boston, Mass.). The MCF-7 (adenocarcinoma; mammary gland) cell line was obtained from the American Type Culture Collection (Manassas, Va.) or and was cultured in DMEM (Mediatech, Herndon, Va.) supplemented with 10% fetal bovine serum (FBS) (HyClone Logan, Utah) and bovine insulin (0.01 mg/mL) (Sigma, St. Louis, Mo.) at 37° C. in a humidified incubator at a 5% CO2/air mixture. CCXCKR2 transfected MDA-MB-435S were produced as described below. MDA-MB-435S human breast cancer line, was purchased from ATCC, and cultured in DMEM/10% FBS medium. The complete coding sequence of the gene encoding CCXCKR2 (a.k.a. CXCR7, hRDC1), was isolated from MCF-7 cells using μMACs mRNA isolation kit (Miltenyi Biotec, Auburn, Calif.). DNA contamination was removed by DNase digestion via RNeasy columns (Qiagen, Inc., Valencia, Calif.) and cDNA was generated using GeneAmp RNA PCR Core Kit (Applied Biosystems, Foster City, Calif.). PCR of cDNA samples was performed using Taq PCR Master Mix kit (Qiagen, Inc.) and hRDC1 primers harboring 5′ and 3′ NotI sites (hRDC1F 5′ […]-3′ (SEQ ID NO:11, hRDC1R 5′-[…]-3′) Not I digested PCR product was ligated into Not I digested pcDNA3.1 (+)(Invitrogen, Carlsbad, Calif.) and screened for orientation and sequence confirmed. Plasmid DNA was then isolated from overnight bacterial cultures by Maxiprep (Qiagen, Inc.). Plasmid DNA (10 μg) was added to MDA-MB-435s cells and cells were electroporated (0.22 kV, 960 uF) via Gene Pulser (Biorad laboratories, Hercules, Calif.). 48 hr post-electroporation, cells were transferred to selection medium (1000 ug/ml G418).
Binding Analysis. Target compounds were tested to determine their ability to bind with CCXCKR2 sites on MCF-7 and/or MDA-MB-435S cells. Efficiency-maximized radioligand binding using filtration protocols as described in Dairaghi D J, et al., HHV8-encoded vMIP-I selectively engages chemokine receptor CCR5. Agonist and antagonist profiles of viral chemokines., J. Biol. Chem. 1999 Jul. 30; 274(31): 21569-74 and Gosling J, et al., Cutting edge: identification of a novel chemokine receptor that binds dendritic cell-and T cell-active chemokines including ELC, SLC, and TECK., J. Immunol. 2000 Mar. 15; 164(6):2851-6 was used.
In these assays, MCF-7 and/or MDA-MB-435S cells were interrogated with the target compounds and the ability of these compounds to displace ^125I radiolabeled SDF-1 was assessed using the protocol described in Dairaghi and Gosling. The target compounds were added to the plate to the indicated concentration and were then incubated with cells followed by the addition of radiolabeled chemokine (^125I SDF-1) for 3 hr at 4° C. in the following binding medium (25 mM HEPES, 140 mM NaCl, 1 mM CaCl2, 5 mM MgCl2 and 0.2% bovine serum albumin, adjusted to pH 7.1). All assays were then incubated for 3 hrs at 4° C. with gentle agitation. Following incubation in all binding assays, reactions were aspirated onto PEI-treated GF/B glass filters (Packard) using a cell harvester (Packard) and washed twice (25 mM HEPES, 500 mM NaCl, 1 mM CaCl2, 5 mM MgCl2, adjusted to pH 7.1). Scintillant (MicroScint 10, Packard) was added to the wells, and the filters were counted in a Packard Topcount scintillation counter. Data were analyzed and plotted using Prism (GraphPad Prism version 3.0a for Macintosh, GraphPad Software, www.graphpad.com).

T1 sequence (P61073 whole entry): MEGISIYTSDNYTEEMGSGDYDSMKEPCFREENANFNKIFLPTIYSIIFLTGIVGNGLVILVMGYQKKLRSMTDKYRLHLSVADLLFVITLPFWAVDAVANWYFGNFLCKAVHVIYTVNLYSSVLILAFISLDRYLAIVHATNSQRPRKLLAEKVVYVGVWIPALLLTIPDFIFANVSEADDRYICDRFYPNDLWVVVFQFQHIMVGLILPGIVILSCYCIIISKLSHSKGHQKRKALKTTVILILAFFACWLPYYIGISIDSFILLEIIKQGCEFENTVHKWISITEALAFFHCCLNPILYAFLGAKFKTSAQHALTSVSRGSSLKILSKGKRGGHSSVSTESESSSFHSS
T2 sequence (P25106 whole entry): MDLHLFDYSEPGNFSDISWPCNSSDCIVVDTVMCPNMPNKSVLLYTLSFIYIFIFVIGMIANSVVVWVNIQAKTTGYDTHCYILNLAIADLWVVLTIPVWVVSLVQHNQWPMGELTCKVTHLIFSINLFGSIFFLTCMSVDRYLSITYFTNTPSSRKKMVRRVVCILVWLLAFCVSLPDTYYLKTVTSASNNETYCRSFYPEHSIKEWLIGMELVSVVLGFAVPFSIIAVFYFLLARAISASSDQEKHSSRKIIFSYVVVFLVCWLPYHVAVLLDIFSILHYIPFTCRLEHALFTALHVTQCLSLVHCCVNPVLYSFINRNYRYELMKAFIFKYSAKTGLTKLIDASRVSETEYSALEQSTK

SMILES | IC50 (CXCR4) | IC50 (CCXCKR2 (CXCR7))
Cc1cc(-c2ccc3ccn(CC(=O)NCCN(C)C4CCCCC4)c3c2)ccc1F [No 33] | < 1000 nM | < 1000 nM
CN(CCNC(=O)Cn1ccc2ccc(-c3ccc4c(ccn4C)c3)cc21)C1CCCCC1 [No 35] | < 1000 nM | 1000 to 10000 nM
COc1ccc(-c2ccc3ccn(CC(=O)NCCN(C)C4CCCCC4)c3c2)cc1 [No 26] | < 1000 nM | 1000 to 10000 nM
Cc1ccc(-c2ccc3ccn(CC(=O)NCCN(C)C4CCCCC4)c3c2)cc1 [No 24] | < 1000 nM | 1000 to 10000 nM
CCCCc1ccc(-c2ccc3ccn(CC(=O)NCCN(C)C4CCCCC4)c3c2)cc1 [No 31] | < 1000 nM | 1000 to 10000 nM
Cc1cc(C)cc(-c2ccc3ccn(CC(=O)NCCN(C)C4CCCCC4)c3c2)c1 [No 32] | < 1000 nM | 1000 to 10000 nM
CN(CCNC(=O)Cn1ccc2ccc(-c3ccc(Cl)c(Cl)c3)cc21)C1CCCCC1 [No 27] | < 1000 nM | < 1000 nM
CN(CCNC(=O)Cn1ccc2ccc(-c3cccc(C#N)c3)cc21)C1CCCCC1 [No 28] | 1000 to 10000 nM | 1000 to 10000 nM
CN(CCNC(=O)Cn1ccc2ccc(-c3ccc(F)cc3)cc21)C1CCCCC1 [No 23] | < 1000 nM | < 1000 nM
